Test results as given in PubChem BioAssay (NCI).
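Exposure lasted 48 hours, with cells grown in 96-well plates and compounds tested at five concentrations. At the TGI there is no net growth.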

Tests used:
Assay in all cases: NCI anticancer screen, dose series, 48 h
786-0 renal = tested on: 786-0 renal
A498 renal = tested on: A498 renal
A549 NSCLC = tested on: A549 NSCLC
ACHN renal = tested on: ACHN renal
CCRF-CEM leukemia = tested on: CCRF-CEM leukemia
COLO 205 colon = tested on: COLO 205 colon
DLD-1 colon = tested on: DLD-1 colon
DMS 114 small cell lung = tested on: DMS 114 small cell lung
DMS 273 small cell lung = tested on: DMS 273 small cell lung
EKVX NSCLC = tested on: EKVX NSCLC
HCC-2998 colon = tested on: HCC-2998 colon
HCT-116 colon = tested on: HCT-116 colon
HCT-15 colon = tested on: HCT-15 colon
HL-60(TB) leukemia = tested on: HL-60(TB) leukemia
HOP-18 NSCLC = tested on: HOP-18 NSCLC
HOP-62 NSCLC = tested on: HOP-62 NSCLC
HOP-92 NSCLC = tested on: HOP-92 NSCLC
HT29 colon = tested on: HT29 colon
IGROV1 ovarian = tested on: IGROV1 ovarian
K-562 leukemia = tested on: K-562 leukemia
KM12 colon = tested on: KM12 colon
KM20L2 colon = tested on: KM20L2 colon
LOX IMVI melanoma = tested on: LOX IMVI melanoma
LXFL 529 NSCLC = tested on: LXFL 529 NSCLC
M14 melanoma = tested on: M14 melanoma
M19-MEL melanoma = tested on: M19-MEL melanoma
MALME-3M melanoma = tested on: MALME-3M melanoma
MOLT-4 leukemia = tested on: MOLT-4 leukemia
NCI-H226 lung = tested on: NCI-H226 lung
NCI-H23 lung = tested on: NCI-H23 lung
NCI-H460 lung = tested on: NCI-H460 lung
NCI-H522 lung = tested on: NCI-H522 lung
OVCAR-3 ovarian = tested on: OVCAR-3 ovarian
OVCAR-4 ovarian = tested on: OVCAR-4 ovarian
OVCAR-5 ovarian = tested on: OVCAR-5 ovarian
OVCAR-8 ovarian = tested on: OVCAR-8 ovarian
RPMI-8226 leukemia = tested on: RPMI-8226 leukemia
RXF 393 renal = tested on: RXF 393 renal
SF-268 CNS = tested on: SF-268 CNS
SF-295 CNS = tested on: SF-295 CNS
SF-539 CNS = tested on: SF-539 CNS
SK-MEL-2 melanoma = tested on: SK-MEL-2 melanoma
SK-MEL-28 melanoma = tested on: SK-MEL-28 melanoma
SK-MEL-5 melanoma = tested on: SK-MEL-5 melanoma
SK-OV-3 ovarian = tested on: SK-OV-3 ovarian
SNB-78 CNS = tested on: SNB-78 CNS
SR leukemia = tested on: SR leukemia
SW-620 colon = tested on: SW-620 colon
TK-10 renal = tested on: TK-10 renal
U251 CNS = tested on: U251 CNS
UACC-257 melanoma = tested on: UACC-257 melanoma
UACC-62 melanoma = tested on: UACC-62 melanoma
UO-31 renal = tested on: UO-31 renal
XF 498 CNS = tested on: XF 498 CNS
CAKI-1 renal = tested on: CAKI-1 renal
SN12C renal = tested on: SN12C renal
SNB-19 CNS = tested on: SNB-19 CNS
SNB-75 CNS = tested on: SNB-75 CNS

With `CCCCNS(=O)(=O)c1ccc(-c2ccc3c(c2)-c2ccc(S(=O)(=O)NCCCC)cc2S3(=O)=O)cc1` the TGI (786-0 renal) was 27.9 µM, the TGI (A498 renal) was 26.6 µM and the TGI (A549 NSCLC) was 57.3 µM. The TGI (ACHN renal) was greater than 100 µM, the TGI (CCRF-CEM leukemia) was greater than 100 µM and the TGI (COLO 205 colon) was greater than 100 µM. For the same compound, the TGI (DLD-1 colon) was greater than 100 µM, the TGI (DMS 114 small cell lung) was greater than 100 µM and the TGI (DMS 273 small cell lung) was greater than 100 µM. It also gave a TGI (EKVX NSCLC) greater than 100 µM, a TGI (HCC-2998 colon) greater than 100 µM and a TGI (HCT-116 colon) of 54.9 µM. For the same compound, the TGI (HCT-15 colon) was greater than 100 µM, the TGI (HL-60(TB) leukemia) was greater than 100 µM and the TGI (HOP-18 NSCLC) was 54 µM. It also gave a TGI (HOP-62 NSCLC) of 37.3 µM, a TGI (HOP-92 NSCLC) of 41.5 µM and a TGI (HT29 colon) greater than 100 µM. For the same compound, the TGI (IGROV1 ovarian) was greater than 100 µM, the TGI (K-562 leukemia) was greater than 100 µM and the TGI (KM12 colon) was greater than 100 µM. The TGI (KM20L2 colon) was 15.1 µM, the TGI (LOX IMVI melanoma) was 38 µM and the TGI (LXFL 529 NSCLC) was 33.9 µM. It also gave a TGI (M14 melanoma) of 53.7 µM, a TGI (M19-MEL melanoma) greater than 100 µM and a TGI (MALME-3M melanoma) of 49.2 µM. For the same compound, the TGI (MOLT-4 leukemia) was greater than 100 µM, the TGI (NCI-H226 lung) was 32 µM and the TGI (NCI-H23 lung) was 43 µM. The TGI (NCI-H460 lung) was greater than 100 µM, the TGI (NCI-H522 lung) was 66.2 µM and the TGI (OVCAR-3 ovarian) was 76.2 µM. It also gave a TGI (OVCAR-4 ovarian) of 15.4 µM, a TGI (OVCAR-5 ovarian) greater than 100 µM and a TGI (OVCAR-8 ovarian) of 24.9 µM. It also gave a TGI (RPMI-8226 leukemia) greater than 100 µM, a TGI (RXF 393 renal) of 30.6 µM and a TGI (SF-268 CNS) of 31.3 µM. For the same compound, the TGI (SF-295 CNS) was 45.1 µM, the TGI (SF-539 CNS) was 27.4 µM and the TGI (SK-MEL-2 melanoma) was 87.9 µM. It also gave a TGI (SK-MEL-28 melanoma) of 29.7 µM, a TGI (SK-MEL-5 melanoma) of 28.6 µM and a TGI (SK-OV-3 ovarian) of 45.5 µM. It also gave a TGI (SNB-78 CNS) of 33.4 µM, a TGI (SR leukemia) greater than 100 µM and a TGI (SW-620 colon) greater than 100 µM. The TGI (TK-10 renal) was 83.2 µM, the TGI (U251 CNS) was 55.5 µM and the TGI (UACC-257 melanoma) was greater than 100 µM. It also gave a TGI (UACC-62 melanoma) of 34.3 µM, a TGI (UO-31 renal) greater than 100 µM and a TGI (XF 498 CNS) of 23.9 µM.

`CC1=NN(c2ccccc2)C(=O)C12[C@H](c1ccccc1)C2(C#N)C#N` (stereo not given in full) was tested, and the TGI (786-0 renal) was 6.18 µM, the TGI (A498 renal) was 31.6 µM and the TGI (A549 NSCLC) was 31.9 µM. For the same compound, the TGI (ACHN renal) was 21.5 µM, the TGI (CAKI-1 renal) was 16.3 µM and the TGI (CCRF-CEM leukemia) was 2.78 µM. For the same compound, the TGI (COLO 205 colon) was 4.42 µM, the TGI (DLD-1 colon) was 4.01 µM and the TGI (DMS 273 small cell lung) was 6.28 µM. The TGI (EKVX NSCLC) was 33.6 µM, the TGI (HCC-2998 colon) was 34.1 µM and the TGI (HCT-116 colon) was 12 µM. For the same compound, the TGI (HCT-15 colon) was 13.9 µM, the TGI (HL-60(TB) leukemia) was 7.81 µM and the TGI (HOP-18 NSCLC) was 20.3 µM. The TGI (HOP-62 NSCLC) was 31.1 µM, the TGI (HOP-92 NSCLC) was 7.81 µM and the TGI (HT29 colon) was 17.1 µM. It also gave a TGI (IGROV1 ovarian) of 28.1 µM, a TGI (K-562 leukemia) of 6.12 µM and a TGI (KM12 colon) of 25.1 µM. For the same compound, the TGI (KM20L2 colon) was 27.3 µM, the TGI (LOX IMVI melanoma) was 4.63 µM and the TGI (LXFL 529 NSCLC) was 3.89 µM. The TGI (M14 melanoma) was 3.14 µM, the TGI (M19-MEL melanoma) was 6.41 µM and the TGI (MALME-3M melanoma) was 11.6 µM. It also gave a TGI (MOLT-4 leukemia) of 3.1 µM, a TGI (NCI-H226 lung) of 26.3 µM and a TGI (NCI-H23 lung) of 11 µM. The TGI (NCI-H460 lung) was 41.5 µM, the TGI (NCI-H522 lung) was 11.5 µM and the TGI (OVCAR-3 ovarian) was 19.5 µM. The TGI (OVCAR-4 ovarian) was 17.5 µM, the TGI (OVCAR-5 ovarian) was 24.2 µM and the TGI (OVCAR-8 ovarian) was 7.27 µM. For the same compound, the TGI (RPMI-8226 leukemia) was 4.08 µM, the TGI (RXF 393 renal) was 14.6 µM and the TGI (SF-268 CNS) was 20.6 µM. It also gave a TGI (SF-295 CNS) of 25.5 µM, a TGI (SF-539 CNS) of 27.7 µM and a TGI (SK-MEL-2 melanoma) of 16.7 µM. The TGI (SK-MEL-28 melanoma) was 9.6 µM, the TGI (SK-MEL-5 melanoma) was 14.3 µM and the TGI (SK-OV-3 ovarian) was 32.7 µM. For the same compound, the TGI (SN12C renal) was 14.3 µM, the TGI (SNB-19 CNS) was 29.5 µM and the TGI (SNB-75 CNS) was 19.3 µM. For the same compound, the TGI (SNB-78 CNS) was 34 µM, the TGI (SW-620 colon) was 3.84 µM and the TGI (TK-10 renal) was 25 µM. The TGI (U251 CNS) was 29.6 µM, the TGI (UACC-257 melanoma) was 18.4 µM and the TGI (UACC-62 melanoma) was 12.4 µM. It also gave a TGI (UO-31 renal) of 27.9 µM and a TGI (XF 498 CNS) of 7.22 µM.
